Measurements: patent publication US20250073185A1, “Composition Including Benzylaminoethanol Derivative as Active Ingredient for Prevention or Treatment of Metabolic Disease” (JLBIOTHERAPEUTICS, priority 2021, published 2025)

System: 3T3-L1 cells
Assay: Cytotoxicity measurement (WST assay, EZ-Cytox)
Format: cell-based
Settings: 3T3-L1 cells, 0.1, 1, 5, 10 and 25 μM, 48 hours
Experimental: After 48 hours, 10 μl of EZ-Cytox was added to each cell culture which was then incubated for 30 minutes, and the absorbance at 450 nm was measured using a microplate reader.

`OCCNCc1cc(Br)ccc1OCc1ccc(F)c(C(F)(F)F)c1` [AZ1, 2-(5-bromo-2-(4-fluoro-3-(trifluoromethyl)benzyloxy)benzylamino)ethanol] was tested, and the “cytotoxicity (cell viability vs untreated cells)” value was “did not exhibit cytotoxicity”.
